Data published in patent US7521239B2, “Photochemical internalization for virus-mediated molecule delivery into the cyosol” (priority 2000, dated 2009).

Assays:
[1] = system: human WiDr adenocarcinoma cells; experiment: X-gal staining of photochemically transduced WiDr cells; type: cell-based; conditions: AlPcS2a and light, no adenovirus
Experimental: 50 000 cells per well were seeded in 6-well plates (Costar,) and incubated overnight at 37° C. 1 ml medium containing […] AlPcS2a (Phorphyrin Products, Logan, Utah) was added, the cells were incubated for 18 h at 37° C., washed three times with medium and incubated for another 3 h at 37° C. The medium was removed and 200 μl of AdHCMV-lacZ was added. After incubation for 30 min at 37° C., 2 ml medium was added and the cells were incubated for 30 min before exposure to red light (Phillips TL 20 W/09, filtered through a Cinemoid 35 filter, with a light intensity reaching the cells of 13.5 W/m2). Before analysis of β-galactosidase activity the cells were incubated at 37° C. for two days.
For X-gal (5-bromo-4 chloro 3 indolyl-β-D-galactopyranoside) staining the medium was discarded, 1 ml of fixative solution (0,05% glutaraldehyde in PBS) was added and the cells were incubated at room temperature for 15 min. The fixative solution was discarded and the cells were washed three times in PBS at room temperature (second rinse was for 10 min, first and third rinses were performed quickly). 1 ml X-gal solution (5 mM K3Fe(CN)6, 5 mM K4Fe(CN)6, 1 mM MgCl2, 1 mg/ml X-gal) was added and the cells were incubated for 4 h to overnight at 37° C. and observed by microscopy (100× magnification) using an Axiovert S100 microscope (Zeiss) with an MC100 Spot camera (Zeiss).

HCT 116 cells = experiment: Flow cytometry of β-galactosidase transduction in HCT 116 cells (AlPcS2a, red light); type: cell-based, human
Experimental: (§1) HCT 116 and WiDr human colon carcinoma cells were obtained from American Type Culture Collection (ATCC nos. CCL-247 and CCL-218, respectively). Cells were cultured in RPMI 1640 medium containing 10% fetal calf serum, 100 U/ml penicillin, […] and 2 mM glutamine (all Gibco BRL, Paisley, UK) at 37° C. in 5% CO2 atmosphere.
(§2) The recombinant adenovirus AdHCMV-lacZ encoding the E. coli lacZ gene controlled by the human cytomegalovirus promoter was obtained by homologous recombination using the pJM17 system in 293 cells (Addison et al., 1997, J. Gen. Virol. 78: 1653-61). Recombinant vectors were plaque purified, grown to high titer in 293 cells and purified by CsCl banding (Hitt et al., 1995, Methods Mol. Genet. 7:13-30). The virus-solution was diluted in PBS containing 0.68 mM CaCl2 and 0.5 mM MgCl2 to the MOIs employed in the different experiments. […]
(§3) The cells were trypsinised, centrifuged, resuspended in 25 ml medium and incubated for 5 min at 37° C. […] The samples were kept on ice for 30-60 min, filtered through a […] mesh nylon filter and analyzed in a FACS-Calibur flow cytometer (Becton Dickinson). […] Fluorescein-fluorescence was measured through a 510-530 nm filter after excitation with an argon laser (15 mW, 488 nm). […] The data were analyzed with the CELLQuest Software (Becton Dickinson).

WiDr cells = experiment: Flow cytometry of β-galactosidase transduction in WiDr cells (AlPcS2a, red light); type: cell-based, human; conditions: photochemical treatment alone (Ad−, S+)
Experimental: as §1, §2, §3

[2] = system: HCT 116 adenocarcinoma cells; experiment: MTT cell survival after PCI-induced transduction with AdV-TK and ganciclovir; type: cell-based, human
Experimental: HCT 116 adenocarcinoma cells were infected with an adenovirus gene therapy vector encoding the HSV-tk gene (AdV-TK) and subjected to PCI-treatment. Conditions for infection were as described under “Experimental protocols” (MOI=5). 2 days after infection, different concentrations of ganciclovir (GCV) was added, and the cells were incubated further for 3 days before analysis of cell survival by the MTT method. This method is based on reduction of a water-soluble tetrazolium salt (MTT) to a purple, insoluble formazan product by mitochondrial dehydrogenases present in living, metabolically active cells. One ml medium containing […] is added to the cells, followed by 4 h incubation (37° C., 5% v/v CO2). The resulting formazan crystals are dissolved by adding 200 μl isopropanol (Sigma, Mo., USA) per well. The solution is transferred to a 96 wells plate which is read by a Multiskan EX microplate reader (Labsystems, Finland) with a 570 nm bandpass filter.

Compound | β-galactosidase expressing cells (X-gal staining, microscopy) [1] | percentage of β-galactosidase positive cells (HCT 116 cells; Ad−, S+, 8 min light) [%] | mean fluorescence in non-infected cells (HCT 116 cells; photochemical treatment (AlPcS2a + light), no adenovirus) [RFU] | change in percentage of positive cells (WiDr cells) | GCV-mediated cell killing (cell survival, MTT) ([2]; control: only photosensitizer treatment) | GCV-mediated cell killing (cell survival, MTT) ([2]; control: photosensitizer + GCV, no AdV-TK)
aluminum phthalocyanine with 2 sulfonate groups on adjacent rings [AlPcS2a] | No positive cells | 0.4 | 12 | did not significantly change | no such effect | –
Nc1nc(O)c2ncn(COC(CO)CO)c2n1 [GCV, ganciclovir] | – | – | – | – | – | no such effect
